Here are results for 4 compounds from patent US8173610B2 (priority 2005, dated 2012).

Molecules are shown by their SMILES. Where two headings read alike, the source gives them in different places. Some results are limits rather than exact numbers.

For one data set, the system named is HCV. As to the kind of experiment: Inhibition of HCV replication in chronically HCV-infected human PBMC (RT-PCR). The following applies: for IC50: read-out: Anti-HCV activity in PBMC IC50; for IC90: read-out: Anti-HCV activity in PBMC IC90. The procedure: In addition, the inhibition of HCV replication by epirubicin hydrochloride (BNE00), N3′-acetylepirubicin (BNE01), and N3′,O4′,O14-triacetylepirubicin (BNE02) were analyzed in chronically HCV-infected human peripheral blood monocyte cells (PBMC) cultures which was performed as follows. PBMC were isolated from HCV-infected patients blood by Ficoll Pague centrifugation placed on Petri dishes and cultured in 10% FCS, RPMI medium containing PHA (3 μg/ml) according to Laskus et al. (J Infect Dis. 2000) and enriched with known concentrations of BNE00, BNE01, BNE02 in standard conditions (37° C., 5% CO2). On day 5 and 14 of the culture the cells were collected and after extraction, HCV RNA was […] estimated by real-time Reverse Transcriptase Polymerase Chain Reaction using SYBR Green system (FIG. 3). Semiquantitative estimation of HCV RNA was also performed by Reverse Transcriptase Polymerase Chain Reaction, and visualized after electrophoresis through a 1% agarose gel, using ethidium bromide staining (FIG. 4).

Data set [1] is described as follows: Cytotoxic activity in Huh7 cells replicating the HCV replicon. The following applies: human.
Another data set in a line: in vitro. The following applies: human.
In the next data set the test system is HCV subgenomic replicon. As to the kind of experiment: Anti-HCV activity in HCV subgenomic replicon system (Huh7 cells, firefly luciferase). The settings on record: for Therapeutic Index in HCV replicon system CC50/IC50: Huh7 HCV replicon system. The procedure: The antiviral (anti-HCV) activity of epirubicin and its derivatives was tested in vitro in cell culture model using the HCV subgenomic replicon stably transfected into Huh7 cells line (clone BM4.5) (Gao et al., J. Virol. 2001) and/or in Huh7 cells replicating selectable subgenomic HCV replicon carrying firefly luciferase gene (Vrolijk et al. J. Virol. Method. 2003).
The BM4.5 Huh7 cells were grown in cell culture medium in presence of varying concentrations of epirubicin hydrochloride (BNE00) or epirubicin derivatives. The media and drug were changed everyday for 5 days. After 5 days of treatment cells were lysed and total RNA extracted as described (Gao et al., J. Virol. 2001). The isolated RNA was then assayed for presence of HCV replication by Northern Blot analysis, using a HCV probe targeting the NS5B region of HCV. […] The cell lines were treated everyday with different epirubicin hydrochloride (BNE00) or epirubicin derivatives concentrations for 5 days and at the end of treatment, the RNA from the treated cells were isolated. The total RNA was then probed with a HCV specific probe using Northern blot analysis to detect the HCV RNA. The resulting blot was then exposed to phosphorimager densitometry and the viral replication quantified.
For Huh7 cells replicating selectable subgenomic HCV replicon carrying firefly luciferase gene cells were treated with epirubicin hydrochloride (BNE00) or epirubicin derivatives as described above for BM4,5 cells. Following the treatment, cells were lysed and firefly luciferase activity was measured using Luminoskan device (Thermolabsystem) as described (Vrolijk et al. J. Virol. Methods. 2003).
On the technique in general: A replicon is a self-replicating genome or part of one, used to study replication in cells.

The nature of another data set: in vivo. The settings on record: both, BALB/C, mouse, ip.
The subject of a further data set is Huh7 cells. As to the kind of experiment: Cytotoxic activity in Huh7 cells replicating the HCV replicon. The following applies: read-out: Cytotoxic activity in Huh7 Cells, CC50; Huh7 cells replicating subgenomic HCV replicon carrying firefly luciferase gene.
The subject of another data set is BALB/C mice. Kind of data set: In vivo acute toxicity in mice (OECD Guideline No 401).
[2] abbreviates: Hepatitis C virus, PBMC, in Homo sapiens.
Where [3] appears, read: chronically HCV-infected human PBMC.
Setting [4] is: read-out: Anti-HCV activity in HCV replicon system IC50, Huh7 cells, subgenomic HCV replicon carrying firefly luciferase gene.

Experimental for BALB/C mice: The in vivo determination of acute toxicity of drugs was performed in mice according to “OECD Guidelines for Testing of Chemicals” (Guideline No 401). The study was performed in BALB/C mice and the test substance was administrated intraperitoneally in dose of 1; 5 and 10 mg/kg b.w. Ten males and 10 females were used for each dose. A control group receiving only solvent was run concurrently.

Broadly, the IC50 is the concentration at which inhibition is half-maximal. What is called IC90 is the concentration at which the effect reaches the 90% level. The LD50 is the dose at which mortality reaches 50%. Read a high LD50 as a less toxic substance. On to `COc1cccc2c1C(=O)c1c(O)c3c(c(O)c1C2=O)C[C@@](O)(C(=O)CO)C[C@@H]3O[C@H]1C[C@H](N)[C@@H](O)[C@H](C)O1` [BNE00, 7-O-(3′-amino-2′,3′,6′-trideoxy-α,β-L-arabinohexopyranosyl)-adriamycinone, reference compound], for which the IC50 with HCV (setting [2]) is 320 nM; in the data set on HCV subgenomic replicon (Hepatitis C virus, Huh-7, read-out: Anti-HCV activity in HCV replicon system IC50), 2 nM; in the data set with HCV subgenomic replicon (Hepatitis C virus, Huh-7, read-out: anti-HCV IC50), 2 to 4 nM. Further, in the data set with HCV (setting [2]), the IC90 was 460 nM. Moreover, in the data set on HCV (setting [3]), the “Therapeutic Index in PBMC TI50 CC50/IC50” value came to 5.62. Besides, the CC50 in data set [1] stood at 3 nM; in the data set “in vitro”, 1800 nM. Besides, the CC90 in “in vitro” was 2400 nM. The “Therapeutic Index in HCV replicon system CC50/IC50” value in the data set on HCV subgenomic replicon is on record as 1.5. Further, in “in vivo”, the LD50 is 26.2 mg/kg.
For the compound `COc1cccc2c1C(=O)c1c(O)c3c(c(O)c1C2=O)CC(O)(C(=O)CO)CC3OC1CC(N(C)C)C(O)C(C)O1` (stereo not shown) [BNE06, 3′-N,N-Dimethyl-4′-epidoxorubicin], the CC50 in the data set with Huh7 cells was 60 nM. Also, the “Therapeutic Index in HCV replicon system CC50/IC50” value in the data set on HCV subgenomic replicon is 3.0. In addition, the IC50 with HCV subgenomic replicon (setting [4]) is 18 nM.
As to `COc1cccc2c1C(=O)c1c(O)c3c(c(O)c1C2=O)CC(O)(C(=O)COC(C)=O)CC3OC1CC(NC(C)=O)C(OC(C)=O)C(C)O1` (stereo not shown) [BNE02, N3′, O4′, O14-triacetyl-4′-epidoxorubicin], in the data set on HCV (setting [3]), the “Therapeutic Index in PBMC TI50 CC50/IC50” value is above 490.0, the half-inhibitory concentration (IC50) was below 100 nM and the IC90 worked out at 500 nM. In addition, in the data set with Huh7 cells, the CC50 worked out at 5000 nM. Moreover, the “Therapeutic Index in HCV replicon system CC50/IC50” value in the data set on HCV subgenomic replicon worked out at 10. Moreover, in the data set on HCV subgenomic replicon (setting [4]), the IC50 was 500 nM. Besides, in the data set with PBMC, the CC50 was determined as 49000 nM and the CC90 amounted to 120000 nM. Also, the “LD50 (in vivo acute toxicity)” value with BALB/C mice (BALB/C mice, intraperitoneal) was determined as 1355.08 mg/kg b.w. Further, the “fold lower acute toxicity compared with epirubicin hydrochloride (BNE00)” value with BALB/C mice (LD50 ratio, mice) was determined as 52 fold.
`COc1cccc2c1C(=O)c1c(O)c3c(c(O)c1C2=O)C[C@@](O)(C(=O)CO)C[C@@H]3O[C@H]1C[C@@H](NC(C)=O)[C@H](O)[C@H](C)O1` [BNE01, N3′-acetyl-4′-epidoxorubicin]: in the data set on HCV (setting [3]), the “Therapeutic Index in PBMC TI50 CC50/IC50” value is on record as 91.7, the IC50 is 360 nM and the IC90 came to 470 nM. In the data set with PBMC, this compound displayed a CC50 of 33000 nM and a CC90 of 91000 nM.
